“Also recorded” adds a separate entry of the source. Values belong to the substance of their own block, whether it stands above or below them.
Tests used:
KDM5B (PHD1) [1] = assay: Peptide pulldown (immunoblot); assay type: binding, human; details: n = 2
Method: (§1) The 31 GST-tagged PHD readers identified in the PHD finger domain array were expressed and purified as previously. Histone peptide arrays and peptide pulldown assays were conducted as recently described (specifically, the optimized protocol from Petell et al. for the former).
(§2) Figure S5. Peptide Pulldowns with KDM7A and KDM5B (PPC2W2). Representative immunoblot analysis of peptide pulldowns for the PHD fingers of KDM7A and KDM5B (PHD1) with the peptides indicated on the top of the image (n=2).

AIRE (PP) = assay: PHD finger domain microarray; assay type: binding, human
Excerpt: (§3) To define the histone binding preferences of the PHD finger proteome, we expressed and purified 123 annotated human PHD-containing domains as GST-tagged recombinant fusions from E. coli. The recombinant proteins consisted of either PHD fingers in isolation, or as tandem domains if a given PHD finger was located adjacent to another reader domain (e.g., one or more PHD fingers, Tudor, chromo and/or bromodomains) (Additional file 1: Table S1). These GST fusions were printed in duplicate on nitrocellulose-coated microarray slides and probed with biotinylated peptides that represented the N-termini of H3, H4, H2A or H2B (Fig. 1a and Additional file 2: Figure S1). As the majority of PHD readers thus far characterized are H3K4me0/3 readers, we included additional peptides (H3K4 as either mono-, di-, or trimethylated) to further determine any H3K4 methyl preference (Additional file 2: Figure S2 and Fig. 1b). As a control, we also probed these microarrays with an α-Tubulin peptide (a.a. 30–50) that would not be predicted to interact with PHD fingers (Additional file 2: Figure S1). […] We also cannot exclude the possibility that some PHD fingers might not be functionally active on the microarrays (perhaps due to misfolding or the lack of an important adjacent region).
(§4) The protein domain microarray was designed to include 123 GST-tagged PHD-domain containing recombinant proteins. Protein domain microarray development and probing was as previously. Briefly, recombinant proteins were synthesized and cloned into pGEX-4T-1 vector by Biomatik Corporation. These GST-PHD readers were subsequently expressed, purified, and spotted in duplicate onto nitrocellulose-coated glass slides (Oncyte Avid slides, Grace Bio-Labs) using a pin arrayer (Aushon 2470, Aushon). For probing, microarray slides were blocked with 3% milk, 3% bovine serum albumin, 0.1% Tween 20 in PBS. Biotinylated peptides were pre-labeled with streptavidin-Cy3 fluorophore (GE Healthcare) and incubated with the blocked array slides. Slides were then washed with PBST and allowed to air dry. Fluorescent interactions were visualized using a GenePix 4200A Microarray Scanner (Molecular Devices).

KDM5B (PHD1) [2] = assay: PHD finger domain microarray; assay type: binding, human
Excerpt: as §3, §4

TRIM66 (PB) = assay: PHD finger domain microarray; assay type: binding, human
Excerpt: as §3, §4

PHF21A = assay: PHD finger domain microarray; assay type: binding, human
Excerpt: as §3, §4

KDM5A (PHD1) = assay: PHD finger domain microarray; assay type: binding, human
Excerpt: as §3, §4

KDM7A PHD finger = assay: Peptide pulldown (immunoblot); assay type: binding, human; details: n = 2
Method: as §1, §2

KDM5B (PHD3) = details: cited from earlier work
Excerpt: While findings between the domain microarrays and peptide microarrays largely agreed, there were some interesting differences. […] It should be noted that the comparison made here is between the H3K4me3 + K9ac + K18ac and the H3K4me0 + K9ac + K18ac peptides. Due to the limited binding, if any, ...

KDM5A (PHD3) = assay: PHD finger domain microarray; assay type: binding, human
Excerpt: as §3, §4

CHD4 = details: cited from earlier work
Excerpt: Plant homeodomain fingers comprise one of the largest families of reader domains, with over 100 human proteins containing this module. PHD fingers are Zn-coordinating domains that generally recognize unmodified or methylated lysines. To date, the majority of those characterized bind to histone H3 tails either methylated at K4 [7], or unmodified in that position (i.e., KDM5B PHD3 versus KDM5B PHD1 [10, 11] or PHF21A, also known as BHC80 [12]).

binding in peptide pulldown (KDM5B (PHD1) [1]): reads H3K4me0
binding preference (TRIM66 (PB); listed as unmodified H3 tail): readers of the unmodified H3 tail
Substance: H3 (1-20): unmodified H3 N-terminal peptide (1–20)
binding preference (AIRE (PP)): preference for the unmethylated H3K4 state
binding preference (KDM5B (PHD1) [2]): preference for the unmethylated H3K4 state
binding preference (TRIM66 (PB); listed as unmethylated H3K4): preference for the unmethylated H3K4 state
binding preference (PHF21A): preference for the unmethylated H3K4 state
binding preference (KDM5A (PHD1)): preference for the unmethylated H3K4 state

binding in peptide pulldown (KDM7A PHD finger): binds H3K4me3
Substance: H3K4me3: H3 1-20 [Peptide H3K4me3]
reported binding (KDM5B (PHD3)): reported to bind H3K4me3
binding preference (KDM5A (PHD3)): consistent with their current classification as H3K4me3 binders

Substance: H3K9me3: H3 1-20 [Peptide H3K9me3]
reported binding (CHD4): annotated to recognize H3K9me3; also recorded: reported as readers of H3K9 trimethylation

From publication PMC6979384, “Characterization of the plant homeodomain (PHD) reader family for their histone tail interactions” (Epigenetics & Chromatin, 2020)
